{
  "source": "patent US10426815B2",
  "about": "“Prevention and treatment of itch with an MRGPR antagonist” (THE GENERAL HOSPITAL CORPORATION, priority 2015, dated 2019)",
  "key": {"WT DRGs": {"system": "WT DRGs", "test": "DRG culture and calcium imaging, WT mice", "format": "cell-based, mouse", "protocol": "Cervical to lumbar dorsal root ganglia (DRG) from C57/B6 or NK1 mice (1 month old) were dissected and maintained in DMEM (GIBCO, Langley, Okla., USA), containing […] L-glutamine (FISHER […], Pittsburgh, Pa., USA), 10% heat inactivated fetal bovine serum (GIBCO, Langley, Okla., USA), 5000 U/ml penicillin and 5000 μg/ml streptomycin (FISHER […], Pittsburgh, Pa., USA). Enzymatic digestion was carried out with 1 mg collagenase in 1 ml dispase (ROCHE Applied Sciences, IN, USA), at 37° C. for 70 min. The collagenase/dispase solution was removed, and DRGs were washed and suspended in DMEM containing 125 U DNAse (SIGMA, St Louis, USA) within which the ganglia were mechanically triturated using fire-polished glass pipettes. […] Cells were evaluated using a NIKON Eclipse Ti inverted microscope equipped with an Exi Aqua CCD camera (QIMAGING, British Columbia, Canada). Ca^2+ flux fluorescence was measured as an […] ratio at 340 nm and 380 nm (F340/380) (Lambda DG4, Sutter Instruments, Novato, Calif., US). The 340/380 ratiometric images were analyzed using NIKON Elements AR Software (NIKON, Melville, N.Y. USA). […]"}, "hMRGPRX2": {"target": "T1, hMRGPRX2 (Homo sapiens, UniProt Q96LB1)", "T1 construct": "expressed in transfected cells", "T1 sequence (Q96LB1 1-330)": "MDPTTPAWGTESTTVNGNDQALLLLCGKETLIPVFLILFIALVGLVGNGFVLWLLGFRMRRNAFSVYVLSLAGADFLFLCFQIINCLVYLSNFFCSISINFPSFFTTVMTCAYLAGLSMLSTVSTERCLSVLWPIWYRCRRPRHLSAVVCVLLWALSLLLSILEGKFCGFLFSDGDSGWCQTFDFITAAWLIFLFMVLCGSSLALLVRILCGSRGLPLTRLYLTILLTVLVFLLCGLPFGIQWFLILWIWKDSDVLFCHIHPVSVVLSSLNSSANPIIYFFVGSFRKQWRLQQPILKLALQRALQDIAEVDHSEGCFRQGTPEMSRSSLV", "test": "Concentration-effect curves of substance P versus QWF, stable HEK-293 cell line", "format": "cell-based", "details": "stable HEK-293 clone; experiment done once, triplicate points", "text": "Concentration-effect curves with substance P versus the indicated concentrations of QWF on a stable HEK-293 cell line expressing hMRGPRX2. HEK293 cells were transfected with a pcDNA3.1(−) vector containing MRGPRX2 cDNA and clones resistant to […] (G418) were selected. The data were generated from one of those clones. The experiment was done once with each data point done in triplicate. Error bars represent+/−SEM."}, "MrgX3 (human MRGPRX3)": {"target": "T2, MrgX3 (human MRGPRX3) (Homo sapiens, UniProt Q96LB0)", "T2 construct": "expressed in transfected cells; host or cells: HeLa cells, pcDNA3.1(-)", "T2 sequence (Q96LB0 whole entry)": "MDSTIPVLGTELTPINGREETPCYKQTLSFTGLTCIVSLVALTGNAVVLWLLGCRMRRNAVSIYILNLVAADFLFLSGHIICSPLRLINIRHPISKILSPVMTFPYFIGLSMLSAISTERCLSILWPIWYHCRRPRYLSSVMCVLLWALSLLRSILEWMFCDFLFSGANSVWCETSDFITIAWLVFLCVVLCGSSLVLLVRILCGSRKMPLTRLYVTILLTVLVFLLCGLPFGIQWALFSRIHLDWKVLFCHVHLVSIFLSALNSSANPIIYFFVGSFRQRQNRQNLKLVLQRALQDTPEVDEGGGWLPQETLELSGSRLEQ", "test": "Calcium imaging of cells transfected with the GPCR (Table 1)", "format": "cell-based", "details": "SP 10 μM (FIG. 9)", "protocol": "Human NK1 cDNA was obtained from LIFE Technologies, PCR cloned with Xho I-Hind III ends and cloned into pcDNA3.1(−). Mouse NK2 and NK3 expression-ready vectors were obtained from […] (Piscataway, N.J.). All other Mrgprs (human MRGPRX1, human MRGPRX2, human MRGPRX3, human MRGPRX4, mouse MrgprA2a, mouse MrgprA2b, mouse MrgprA3, mouse MrgprA4, mouse MrgprA9, mouse MrgprA10, mouse MrgprB4 and mouse MrgprB5) were cloned by PCR from genomic DNAs and inserted into pcDNA3.1 (−).\n10 μg of expression vector (human MRGPRX2, mouse MrgprA1 or NK1) and 10 μl of LIPOFECTAMINE 2000 transfection reagent were diluted into 0.5 ml of DMEM and separately left at room temperature (RT) for 5 min. They were then mixed and incubated at RT for 20 minutes prior to being added to HeLa cells. HeLa cells were grown to confluence, trypsinized and 1×10^6 cells were pelleted in a 15 ml tube by centrifugation at 1000 rpm for 5 minutes. […]\nCalcium imaging was performed immediately after loading cells with Fura-2, using a ZEISS Axiovert 200M microscope platform equipped with a flipping filter wheel for ratiometric imaging. […] The software later analyzed all images taken during each excitation period. Ratiometric changes were measured in 10-20 cells in each individual experiment. An average of the fluorescence of the cells in each image was calculated and plotted against time in seconds. […]"}},
  "data": [
    {"substance": "Boc-Gln-D-Trp(Formyl)-Phe benzyl ester trifluoroacetate [QWF]", "values": [
      {"measurement": "decrease of the response of WT DRGs to compound 48/80", "setting": "WT DRGs", "result": "significantly decreases"},
      {"measurement": "mode of QWF antagonism of substance P at hMRGPRX2", "setting": "hMRGPRX2", "result": "competitive antagonist"}
    ]},
    {"substance": "SP: inflammatory undecapeptide neuropeptide of the tachykinin family, synthesized by GenScript", "values": [
      {"measurement": "activation of hMRGPRX3 by the substance (in words)", "setting": "MrgX3 (human MRGPRX3)", "result": "does not activate"}
    ]}
  ]
}
